# Measured values: patent US10858352B2, “Pharmaceutical compounds” (Heptares Therapeutics Limited, priority 2018, dated 2020)
# Read-outs that look alike come from different tables or passages of the source.
# Key:
# Assay type in all cases: cell-based
# [1] = molecular target: T1, human muscarinic M3 receptor (Homo sapiens, UniProt P20309); experiment: Alphascreen Surefire phospho-ERK1/2 functional assay, M3; settings: for Emax: CHO
# T1 construct: expressed in transfected cells
# Protocol: (§1) ERK1/2 phosphorylation is a downstream consequence of both Gq/11 and Gi/o protein coupled receptor activation, making it highly suitable for the assessment of M1, M3 (Gq/11 coupled) and M2, M4 receptors (Gi/o coupled), rather than using different assay formats for different receptor subtypes. CHO cells stably expressing the human muscarinic M1, M2, M3 or M4 receptor were plated (25K/well) onto 96-well tissue culture plates in MEM-alpha+10% dialysed FBS. Once adhered, cells were serum-starved overnight. Agonist stimulation was performed by the addition of 5 μL agonist to the cells for 5 min (37° C.). Media was removed and 50 μL of lysis buffer added. After 15 min, a 4 μL sample was transferred to 384-well plate and 7 μL of detection mixture added. […]
# [2] = molecular target: T2, human muscarinic M2 receptor (Homo sapiens, UniProt P08172); experiment: Alphascreen Surefire phospho-ERK1/2 functional assay, M2; settings: for Emax: CHO
# T2 sequence (P08172 1-466): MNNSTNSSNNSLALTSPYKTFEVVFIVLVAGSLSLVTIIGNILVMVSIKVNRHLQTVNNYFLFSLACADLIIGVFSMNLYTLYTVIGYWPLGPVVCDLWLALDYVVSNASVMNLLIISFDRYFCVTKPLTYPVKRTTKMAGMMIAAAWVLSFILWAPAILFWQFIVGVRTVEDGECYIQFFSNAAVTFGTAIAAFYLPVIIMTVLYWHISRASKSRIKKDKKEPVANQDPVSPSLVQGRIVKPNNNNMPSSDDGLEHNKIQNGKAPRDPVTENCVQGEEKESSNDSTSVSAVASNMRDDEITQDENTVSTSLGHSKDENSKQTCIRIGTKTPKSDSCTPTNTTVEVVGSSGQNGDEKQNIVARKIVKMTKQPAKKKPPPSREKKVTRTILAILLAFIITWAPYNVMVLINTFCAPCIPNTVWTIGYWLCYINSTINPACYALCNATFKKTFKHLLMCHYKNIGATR
# Protocol: as §1
# [3] = molecular target: T3, human muscarinic M1 receptor (Homo sapiens, UniProt P11229); experiment: Alphascreen Surefire phospho-ERK1/2 functional assay, M1; settings: for EC50 / pEC50 M1: agonist 5 min, 37° C.; for Emax: CHO
# T3 sequence (P11229 1-460): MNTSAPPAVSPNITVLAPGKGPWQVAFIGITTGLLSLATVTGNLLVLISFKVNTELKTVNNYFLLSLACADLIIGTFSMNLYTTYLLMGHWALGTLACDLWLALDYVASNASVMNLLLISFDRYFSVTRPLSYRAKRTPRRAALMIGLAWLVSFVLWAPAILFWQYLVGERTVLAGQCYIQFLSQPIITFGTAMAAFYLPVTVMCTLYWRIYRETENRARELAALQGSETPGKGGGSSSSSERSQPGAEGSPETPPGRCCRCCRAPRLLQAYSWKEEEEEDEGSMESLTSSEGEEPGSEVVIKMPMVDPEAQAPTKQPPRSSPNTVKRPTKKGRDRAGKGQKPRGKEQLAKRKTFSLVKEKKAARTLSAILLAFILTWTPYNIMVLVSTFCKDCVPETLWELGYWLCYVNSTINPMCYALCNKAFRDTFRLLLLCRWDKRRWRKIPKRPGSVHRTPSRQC
# Protocol: as §1
# [4] = molecular target: T4, human muscarinic M4 receptor (Homo sapiens, UniProt P08173); experiment: Alphascreen Surefire phospho-ERK1/2 functional assay, M4; settings: for EC50 / pEC50 M4: agonist 5 min, 37° C.; for Emax: CHO, read-out: % Emax cf. ACh (M4), CHO cells stably expressing human M4; for Emax / % Emax cf. ACh (M4): Emax relative to ACh
# T4 construct: expressed in transfected cells
# T4 sequence (P08173 1-479): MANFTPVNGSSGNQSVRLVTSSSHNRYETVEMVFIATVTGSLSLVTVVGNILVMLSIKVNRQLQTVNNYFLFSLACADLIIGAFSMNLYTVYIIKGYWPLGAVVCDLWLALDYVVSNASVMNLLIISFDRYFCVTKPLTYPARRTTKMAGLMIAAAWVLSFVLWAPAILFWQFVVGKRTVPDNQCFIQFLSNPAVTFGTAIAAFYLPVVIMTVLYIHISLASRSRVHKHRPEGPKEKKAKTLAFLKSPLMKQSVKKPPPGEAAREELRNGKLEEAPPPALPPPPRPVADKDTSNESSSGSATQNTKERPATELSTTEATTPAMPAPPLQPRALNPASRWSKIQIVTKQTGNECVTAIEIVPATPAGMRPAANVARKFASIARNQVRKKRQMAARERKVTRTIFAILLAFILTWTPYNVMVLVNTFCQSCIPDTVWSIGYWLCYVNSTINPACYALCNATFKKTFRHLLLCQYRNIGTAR
# Protocol: as §1
# [5] = CHO cells stably expressing human M3, agonist 5 min, 37° C., read-out: pEC50 M3 (converted)
# [6] = read-out: % Emax cf. ACh (M3), CHO cells stably expressing human M3, Emax relative to ACh
# [7] = CHO cells stably expressing human M2, agonist 5 min, 37° C., read-out: pEC50 M2 (converted)
# [8] = read-out: % Emax cf. ACh (M2), CHO cells stably expressing human M2, Emax relative to ACh
# [9] = CHO cells stably expressing human M1, read-out: pEC50 M1 (converted)
# [10] = read-out: % Emax cf. ACh (M1), CHO cells stably expressing human M1, Emax relative to ACh
# [11] = CHO cells stably expressing human M4, read-out: pEC50 M4 (converted)
# [12] = pEC50 M1, CHO cells stably expressing human M1
# [13] = CHO cells stably expressing human M1, Emax relative to ACh
# [14] = CHO cells stably expressing human M4
# [15] = CHO cells stably expressing human M1
# T1 sequence (P20309 whole entry): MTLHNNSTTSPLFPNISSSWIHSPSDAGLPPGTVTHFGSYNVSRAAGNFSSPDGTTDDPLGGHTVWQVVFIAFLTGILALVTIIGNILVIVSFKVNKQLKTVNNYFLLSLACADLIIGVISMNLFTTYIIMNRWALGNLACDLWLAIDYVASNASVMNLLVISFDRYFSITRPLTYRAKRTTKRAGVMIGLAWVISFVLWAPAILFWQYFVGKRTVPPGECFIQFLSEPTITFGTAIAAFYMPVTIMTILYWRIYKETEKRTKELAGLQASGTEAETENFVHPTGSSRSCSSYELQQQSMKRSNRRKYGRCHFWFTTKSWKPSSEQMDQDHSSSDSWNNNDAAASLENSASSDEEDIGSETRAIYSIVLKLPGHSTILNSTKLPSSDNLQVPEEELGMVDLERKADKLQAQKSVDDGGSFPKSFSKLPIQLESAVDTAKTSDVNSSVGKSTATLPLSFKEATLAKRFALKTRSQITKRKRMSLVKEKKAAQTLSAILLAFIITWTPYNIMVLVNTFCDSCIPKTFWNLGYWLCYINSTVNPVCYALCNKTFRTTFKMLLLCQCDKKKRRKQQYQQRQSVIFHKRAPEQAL
Compound,"EC50 [1, 5]","EC50 [2, 7]","EC50 [3, 9]","Emax [3, 10]","EC50 [4, 11]",Emax [4],Emax ([1]; read-out: % Emax cf. ACh (M3)),Emax ([2]; read-out: % Emax cf. ACh (M2)),further results
"Cc1noc(N2CCC3(CC(N4CCC(n5cccn5)CC4)C3)C2)n1 (single isomer, unassigned) [2-1 Isomer 2]",> 20000 nM,> 20000 nM,> 20000 nM,56%,302 nM,41%,,,"Emax [1, 6]: 3%; Emax [2, 8]: 2%"
"Cc1noc(N2CCC3(CC(N4CCC(C#N)(c5ccccc5)CC4)C3)C2)n1 (single isomer, unassigned) [2-2 Isomer 2]",,,,,,51%,3%,2%,"EC50 [1]: > 20000 nM; EC50 [2]: > 20000 nM; Emax ([3]; read-out: % Emax cf. ACh (M1)): 40%; EC50 [3, 12]: 741 nM; EC50 ([4]; pEC50 M4, CHO cells stably expressing human M4): 117 nM"
"Cc1noc(N2C3CCC2CC(N2CCC(n4cccn4)CC2)C3)n1 (single isomer, unassigned) [6-1 Isomer 1]",> 20000 nM,> 20000 nM,> 20000 nM,23%,295 nM,51%,2%,2%,
"CCc1noc(N2C3CCC2CC(N2CCC4(CC2)CNC(=O)C4)C3)n1 (single isomer, unassigned) [6-3 Isomer 2]",,,,33%,> 20000 nM,7%,1%,3%,"EC50 [1]: > 20000 nM; EC50 [2]: > 20000 nM; EC50 [3, 12]: 32.4 nM"
"Cc1noc(N2C3CCC2CC(N2CCC4(CC2)CNC(=O)O4)C3)n1 (single isomer, unassigned) [6-4 Isomer 2]",> 20000 nM,> 20000 nM,257 nM,,525 nM,,32%,5%,"% Emax cf. ACh (M1) [3, 13]: (87) %; % Emax cf. ACh (M4) [4, 14]: (39) %"
"Cc1noc(N2C3CCC2CC(N2CCC(C(=O)NC4(C)CCC4)CC2)C3)n1 (single isomer, unassigned) [6-5 Isomer 2]",> 20000 nM,> 20000 nM,148 nM,100%,195 nM,79%,11%,31%,
"Cc1noc(N2CC3CCC2CC3N2CCC(n3cccn3)CC2)n1 (single isomer, unassigned) [7-1 Isomer 1]",> 20000 nM,> 20000 nM,> 20000 nM,18%,151 nM,85%,,,"Emax [1, 6]: 7%; Emax [2, 8]: 11%"
"Cc1noc(N2CC3CCC2CC3N2CCC(n3cccn3)CC2)n1 (single isomer, unassigned) [7-1 Isomer 2]",,,2290 nM,,85.1 nM,,,,"% Emax cf. ACh (M3) ([1]; CHO cells stably expressing human M3, Emax relative to ACh): (6) %; pEC50 M3 ([1]; CHO cells stably expressing human M3, agonist 5 min, 37° C.): <4.70; % Emax cf. ACh (M2) ([2]; CHO cells stably expressing human M2, Emax relative to ACh): (15) %; pEC50 M2 ([2]; CHO cells stably expressing human M2, agonist 5 min, 37° C.): <4.70; % Emax cf. ACh (M1) [3, 13]: (33) %; % Emax cf. ACh (M4) [4, 14]: (99) %"
"Cc1noc(N2C3CCCC2CC(N2CCC4(CC2)CNC(=O)O4)C3)n1 (single isomer, unassigned) [8-3 Isomer 1]",> 20000 nM,> 20000 nM,295 nM,39%,> 20000 nM,67%,1%,4%,
"Cc1noc(N2C3COCC2CC(N2CCC(n4cccn4)CC2)C3)n1 (single isomer, unassigned) [9-1 Isomer 1]",> 20000 nM,> 20000 nM,> 20000 nM,15%,105 nM,77%,1%,21%,
"CCN(CC)C(=O)[C@H]1[C@@H]2CN(C3CC4COCC(C3)N4c3nc(C)no3)C[C@@H]21 (single isomer, unassigned) [9-2 Isomer 2]",6310 nM,> 20000 nM,219 nM,109%,741 nM,74%,42%,27%,
"Cc1noc(N2CCCC(N3CCC4(CC3)CNC(=O)C4)CC2)n1 (single isomer, unassigned) [10-2 Isomer 1]",> 20000 nM,> 20000 nM,93.3 nM,66%,> 20000 nM,10%,,,"Emax [1, 6]: 5%; Emax [2, 8]: 3%"
"Cc1noc(N2C3CCC2CC(N2CCC(C(=O)NC4(C)CCCC4)CC2)C3)n1 (single isomer, unassigned) [12-11 Isomer 2]",,,661 nM,103%,2690 nM,83%,,,
"Cc1noc(N2C3CCC2CC(N2CCC(C(=O)NCC4(C)CCC4)CC2)C3)n1 (single isomer, unassigned) [12-12 Isomer 2]",,,,80%,209 nM,107%,,,"EC50 [3, 12]: 3.72 nM"
"CC1(NC(=O)C2CCN(C3CC4CCC(C3)N4c3nc(C(F)(F)F)no3)CC2)CCC1 (single isomer, unassigned) [12-14 Isomer 1]",,,,,> 20000 nM,,,,"% Emax cf. ACh (M1) [3, 13]: (47) %; EC50 [3, 12]: 912 nM; % Emax cf. ACh (M4) [4, 14]: (6) %"
"CCN(C)C(=O)[C@H]1[C@@H]2CN(C3CC4CCC(C3)N4c3nc(C)no3)C[C@@H]21 (single isomer, unassigned; isomer 1) [12-24 Isomer 1]",,,,,,,,,"% Emax cf. ACh (M1) [3, 13]: (74) %; pEC50 M1 [3, 15]: 6.08; % Emax cf. ACh (M4) [4, 14]: (16) %; pEC50 M4 [4, 14]: <4.70"
"Cc1noc(N2C3CCC2CC(N2C[C@@H]4[C@H](C2)[C@H]4C(=O)NC2(C)CCC2)C3)n1 (single isomer, unassigned; isomer 2) [12-13 Isomer 2]",,,,,,,,,"% Emax cf. ACh (M1) [3, 13]: (102) %; pEC50 M1 [3, 15]: 6.48; % Emax cf. ACh (M4) [4, 14]: (69) %; pEC50 M4 [4, 14]: 6.09"
"Cc1noc(N2CC3(CC(N4CCC(n5cccn5)CC4)C3)C2)n1 [Example 1-1, 2-(3-Methyl-1,2,4-oxadiazol-5-yl)-6-[4-(1H-pyrazol-1-yl)piperidin-1-yl]-2-azaspiro[3.3]heptane]",,,10200 nM,48%,513 nM,77%,,,
"Cc1noc(N2CCC(N3CCC(n4cccn4)CC3)CC2)n1 [Example 4-1, 1′-(3-Methyl-1,2,4-oxadiazol-5-yl)-4-(1H-pyrazol-1-yl)-1,4′-bipiperidine]",,,≥ 20000 nM,50%,1000 nM,85%,,,
